According to patent US6713455B2, “6-O-carbamate-11,12-lacto-ketolide antimicrobials” (Ortho-McNeil Pharmaceutical, Inc., priority 2001, dated 2004):
Values after ≈ are worked out from the molar mass of the structure shown.

Key:
Assay in all cases: MIC, microdilution broth method (NCCLS)
Assay type in all cases: cell-based
H. influenzae ATCC49247 = details: 35° C., 16-20 hours; for MIC: Haemophilus influenzae
Protocol: (§1) Minimal inhibitory concentration (MIC) has been an indicator of in vitro antibacterial activity widely used in the art. The in vitro antimicrobial activity of the compounds was determined by the microdilution broth method following the test method from the National Committee for Clinical Laboratory Standards (NCCLS). This method is described in the NCCLS Document M7-A4, Vol.17, No.2, “Methods for Dilution Antimicrobial Susceptibility Test for Bacteria that Grow Aerobically—Fourth Edition”, which is incorporated herein by reference.
(§2) In this method two-fold serial dilutions of drug in cation adjusted Mueller-Hinton broth are added to wells in microdilution trays. The test organisms are prepared by adjusting the turbidity of actively growing broth cultures so that the final concentration of test organism after it is added to the wells is approximately 5×10^4 CFU/well.
(§3) Following inoculation of the microdilution trays, the trays are incubated at 35° C. for 16-20 hours and then read. […] The amount of growth in the wells containing the test compound is compared with the amount of growth in the growth-control wells (no test compound) used in each tray. As set forth in Table 1, compounds of the present invention were tested against a variety of Gram positive and Gram negative pathogenic bacteria resulting in a range of activities depending on the organism tested.

S. pneumoniae ATCC49619 = details: 35° C., 16-20 hours; for MIC: Streptococcus pneumoniae
Protocol: as §1, §2, §3

E. faecalis ATCC29212 = details: 35° C., 16-20 hours; for MIC: Enterococcus faecalis
Protocol: as §1, §2, §3

E. coli OC2605 = details: 35° C., 16-20 hours; for MIC: Escherichia coli
Protocol: as §1, §2, §3

S. aureus ATCC29213 = details: 35° C., 16-20 hours; for MIC: Staphylococcus aureus
Protocol: as §1, §2, §3

MIC (μg/mL) E (H. influenzae ATCC49247) [µg/mL] | MIC (μg/mL) D (S. pneumoniae ATCC49619) [µg/mL] | MIC (μg/mL) C (E. faecalis ATCC29212) [µg/mL] | MIC (μg/mL) A (E. coli OC2605) [µg/mL] | MIC (μg/mL) B (S. aureus ATCC29213) [µg/mL] | MIC (H. influenzae ATCC49247) [µg/mL] | MIC (S. pneumoniae ATCC49619) [µg/mL] | MIC (E. faecalis ATCC29212) [µg/mL] | MIC (E. coli OC2605) [µg/mL] | MIC (S. aureus ATCC29213) [µg/mL] | SMILES
4 (≈ 4.8 µM) | 0.06 (≈ 0.0719 µM) | 0.25 (≈ 0.3 µM) | >16 | 1 (≈ 1.2 µM) | – | – | – | – | – | CCC1OC(=O)C(C)C(=O)C(C)C(OC2OC(C)CC(N(C)C)C2O)C(C)(OC(=O)NCC=Cc2cccc(-c3ccccn3)c2)CC(C)C(=O)C(C)C2CC(=O)OC12C (stereo not drawn) [Compound 13]
8 (≈ 9.59 µM) | 0.12 (≈ 0.144 µM) | 0.5 (≈ 0.6 µM) | >16 | 2 (≈ 2.4 µM) | – | – | – | – | – | CCC1OC(=O)C(C)C(=O)C(C)C(OC2OC(C)CC(N(C)C)C2O)C(C)(OC(=O)NCC=Cc2cccc(-c3cccnc3)c2)CC(C)C(=O)C(C)C2CC(=O)OC12C (stereo not drawn) [Compound 14]
8 (≈ 9.59 µM) | 0.12 (≈ 0.144 µM) | 0.25 (≈ 0.3 µM) | >16 | 1 (≈ 1.2 µM) | – | – | – | – | – | CCC1OC(=O)C(C)C(=O)C(C)C(OC2OC(C)CC(N(C)C)C2O)C(C)(OC(=O)NCC=Cc2ccc(-c3ccccn3)cc2)CC(C)C(=O)C(C)C2CC(=O)OC12C (stereo not drawn) [Compound 15]
4 (≈ 4.85 µM) | 0.06 (≈ 0.0728 µM) | 0.25 (≈ 0.303 µM) | 16 (≈ 19.4 µM) | 0.5 (≈ 0.607 µM) | – | – | – | – | – | CC[C@H]1OC(=O)[C@H](C)C(=O)[C@H](C)[C@@H](O[C@@H]2O[C@H](C)C[C@H](N(C)C)[C@H]2O)[C@](C)(OC(=O)NC/C=C/c2ccc(-n3cnnc3)cc2)C[C@@H](C)C(=O)C(C)[C@H]2CC(=O)O[C@@]21C (stereo partly drawn) [Compound 16]
– | – | – | – | – | 4 (≈ 4.85 µM) | 0.06 (≈ 0.0727 µM) | 0.12 (≈ 0.145 µM) | > 16 | 0.5 (≈ 0.606 µM) | CC[C@H]1OC(=O)[C@H](C)C(=O)[C@H](C)[C@@H](OC2O[C@H](C)C[C@H](N(C)C)[C@H]2O)[C@](C)(OC(=O)NC/C=C/c2cn(-c3cnccn3)cn2)C[C@@H](C)C(=O)C(C)C2CC(=O)O[C@@]21C (stereo partly drawn) [Compound 17]
8 (≈ 10.6 µM) | 0.12 (≈ 0.159 µM) | 0.5 (≈ 0.661 µM) | >16 | 2 (≈ 2.65 µM) | – | – | – | – | – | CCC1OC(=O)C(C)C(=O)C(C)C(OC2OC(C)CC(N(C)C)C2O)C(C)(OC(=O)NCC#Cc2cccnc2)CC(C)C(=O)C(C)C2CC(=O)OC12C (stereo not drawn) [Compound 18]
>16 | 0.25 (≈ 0.342 µM) | 1 (≈ 1.37 µM) | >16 | 16 (≈ 21.9 µM) | – | – | – | – | – | CCC1OC(=O)C(C)C(=O)C(C)C(OC2OC(C)CC(N(C)C)C2O)C(C)(OC(=O)NCc2ccccc2)CC(C)C(=O)C(C)C2CC(=O)OC12C (stereo not drawn) [Compound 19]
– | – | – | – | – | 2 (≈ 2.48 µM) | – | 0.12 (≈ 0.149 µM) | 16 (≈ 19.8 µM) | 0.25 (≈ 0.309 µM) | CC[C@H]1OC(=O)[C@H](C)C(=O)[C@H](C)[C@@H](OC2O[C@H](C)C[C@H](N(C)C)[C@H]2O)[C@](C)(OC(=O)NC/C=C/c2cncc3ccccc23)C[C@@H](C)C(=O)C(C)C2CC(=O)O[C@@]21C (stereo partly drawn) [Compound 30]

The remaining lines, values behind:

SMILES | MIC (μg/mL) E (H. influenzae ATCC49247) [µg/mL] | MIC (μg/mL) D (S. pneumoniae ATCC49619) [µg/mL] | MIC (μg/mL) C (E. faecalis ATCC29212) [µg/mL] | MIC (μg/mL) A (E. coli OC2605) [µg/mL] | MIC (μg/mL) B (S. aureus ATCC29213) [µg/mL] | MIC (H. influenzae ATCC49247) [µg/mL] | MIC (S. pneumoniae ATCC49619) [µg/mL] | MIC (E. faecalis ATCC29212) [µg/mL] | MIC (E. coli OC2605) [µg/mL] | MIC (S. aureus ATCC29213) [µg/mL]
CCC1OC(=O)C(C)C(=O)C(C)C(OC2OC(C)CC(N(C)C)C2O)C(C)(OC(N)=O)CC(C)C(=O)C(C)C2CC(=O)OC12C (stereo not drawn) [Compound 1] | >16 | 0.5 (≈ 0.78 µM) | 2 (≈ 3.12 µM) | >16 | 8 (≈ 12.5 µM) | – | – | – | – | –
CCC1OC(=O)C(C)C(=O)C(C)C(OC2OC(C)CC(N(C)C)C2O)C(C)(OC(=O)NCc2ccc(-c3cncnc3)cc2)CC(C)C(=O)C(C)C2CC(=O)OC12C (stereo not drawn) [Compound 2] | 16 (≈ 19.8 µM) | 0.06 (≈ 0.0742 µM) | 0.12 (≈ 0.148 µM) | >16 | 1 (≈ 1.24 µM) | – | – | – | – | –
CCC1OC(=O)C(C)C(=O)C(C)C(OC2OC(C)CC(N(C)C)C2O)C(C)(OC(=O)NCc2ccc3ncccc3c2)CC(C)C(=O)C(C)C2CC(=O)OC12C (stereo not drawn) [Compound 3] | 8 (≈ 10.2 µM) | 0.06 (≈ 0.0767 µM) | 0.25 (≈ 0.32 µM) | >16 | 1 (≈ 1.28 µM) | – | – | – | – | –
CCC1OC(=O)C(C)C(=O)C(C)C(OC2OC(C)CC(N(C)C)C2O)C(C)(OC(=O)NCc2ccc(C(=O)O)cc2)CC(C)C(=O)C(C)C2CC(=O)OC12C (stereo not drawn) [Compound 4] | >16 | 1 (≈ 1.29 µM) | 8 (≈ 10.3 µM) | >16 | >16 | – | – | – | – | –
CCC1OC(=O)C(C)C(=O)C(C)C(OC2OC(C)CC(N(C)C)C2O)C(C)(OC(=O)NCC=Cc2cnc3ccccc3c2)CC(C)C(=O)C(C)C2CC(=O)OC12C (stereo not drawn) [Compound 5] | 16 (≈ 19.8 µM) | 0.03 (≈ 0.0371 µM) | 0.06 (≈ 0.0743 µM) | 16 (≈ 19.8 µM) | 0.5 (≈ 0.619 µM) | – | – | – | – | –
CCC1OC(=O)C(C)C(=O)C(C)C(OC2OC(C)CC(N(C)C)C2O)C(C)(OC(=O)NCC=Cc2ccc(-c3ccccn3)cc2)CC(C)C(=O)C(C)C2C(OC)C(=O)OC12C (stereo not drawn) [Compound 6] | 8 (≈ 9.26 µM) | 0.25 (≈ 0.289 µM) | 1 (≈ 1.16 µM) | >16 | 1 (≈ 1.16 µM) | – | – | – | – | –
CC[C@H]1OC(=O)[C@H](C)C(=O)[C@H](C)[C@@H](OC2O[C@H](C)C[C@H](N(C)C)[C@H]2O)[C@](C)(OC(=O)NC/C=C/c2ccc(-c3ncccn3)cc2)C[C@@H](C)C(=O)C(C)C2CC(=O)O[C@@]21C (stereo partly drawn) [Compound 7] | – | – | – | – | – | 8 (≈ 9.58 µM) | 0.06 (≈ 0.0719 µM) | 0.12 (≈ 0.144 µM) | > 16 | 0.25 (≈ 0.299 µM)
CCC1OC(=O)C(C)C(=O)C(C)C(OC2OC(C)CC(N(C)C)C2O)C(C)(OC(=O)NCC=Cc2ccc(-c3cncnc3)cc2)CC(C)C(=O)C(C)C2CC(=O)OC12C (stereo not drawn) [Compound 9] | 8 (≈ 9.58 µM) | 0.06 (≈ 0.0719 µM) | 0.25 (≈ 0.299 µM) | >16 | 0.5 (≈ 0.599 µM) | – | – | – | – | –
CCC1OC(=O)C(C)C(=O)C(C)C(OC2OC(C)CC(N(C)C)C2O)C(C)(OC(=O)NCC=Cc2ccc3cccnc3c2)CC(C)C(=O)C(C)C2C(OC)C(=O)OC12C (stereo not drawn) [Compound 10] | 8 (≈ 9.55 µM) | 0.12 (≈ 0.143 µM) | 0.5 (≈ 0.597 µM) | >16 | 1 (≈ 1.19 µM) | – | – | – | – | –
CCC1OC(=O)C(C)C(=O)C(C)C(OC2OC(C)CC(N(C)C)C2O)C(C)(OC(=O)NCC=Cc2cncc(-c3ccccn3)c2)CC(C)C(=O)C(C)C2CC(=O)OC12C (stereo not drawn) [Compound 11] | 4 (≈ 4.79 µM) | 0.06 (≈ 0.0719 µM) | 0.12 (≈ 0.144 µM) | >16 | 0.5 (≈ 0.599 µM) | – | – | – | – | –
CCC1OC(=O)C(C)C(=O)C(C)C(OC2OC(C)CC(N(C)C)C2O)C(C)(OC(=O)N(CC=Cc2cncc(-c3ccccn3)c2)CC=Cc2cncc(-c3ccccn3)c2)CC(C)C(=O)C(C)C2CC(=O)OC12C (stereo not drawn) [Compound 12] | 16 (≈ 15.5 µM) | 0.12 (≈ 0.117 µM) | 0.5 (≈ 0.486 µM) | >16 | 2 (≈ 1.94 µM) | – | – | – | – | –
CCC1OC(=O)C(C)C(=O)C(C)C(OC2OC(C)CC(N(C)C)C2O)C(C)(OC(=O)NCc2ccc(Br)cc2)CC(C)C(=O)C(C)C2CC(=O)OC12C (stereo not drawn) [Compound 20] | 16 (≈ 19.8 µM) | 0.12 (≈ 0.148 µM) | 0.5 (≈ 0.617 µM) | >16 | 2 (≈ 2.47 µM) | – | – | – | – | –
